Data as given in the supplement of paper PMC10307832.

Legend:
Experiment in all cases: relative viability (nuclei count vs DMSO), 5 days (fraction); higher = more cells survive
[1] = compound: C/C(=N\NC(=S)N1CCC1)/C2=CC=CC=N2 + CC1(C)CCC(c2ccc(Cl)cc2)=C(CN2CCN(c3ccc(C(=O)NS(=O)(=O)c4ccc(N[C@H](CCN5CCOCC5)CSc5ccccc5)c(S(=O)(=O)C(F)(F)F)c4)cc3)CC2)C1 [Navitoclax] (partner 0.5 µM)
Outline: (§1)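 Nuclei were stained with Hoechst during a one-step fixation (final 0.05% Triton X-100, 1% formaldehyde, 1 ug/ml Hoechst) carried out 5 days after dosing, then counted on 4× images. The cells, lung cancer lines in 1536-well plates, had been dosed by pin tool the day after seeding with one drug alone or a fixed anchor-drug dose plus five library-drug doses (not always all listed) in √10 steps. Relative viability is the nuclei count in treated wells divided by that in vehicle wells, and each value is the median of duplicate plates.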

[2] = compound: C/C(=N\NC(=S)N1CCC1)/C2=CC=CC=N2 + O=C(CCCCCCC(=O)Nc1ccccc1)NO [Vorinostat] (partner 1 µM)
Outline: as §1

[3] = compound: C/C(=N\NC(=S)N1CCC1)/C2=CC=CC=N2 + Nc1nc2[nH]cc(CCc3ccc(C(=O)N[C@@H](CCC(=O)O)C(=O)O)cc3)c2c(=O)[nH]1 [Pemetrexed] (partner 0.2 µM)
Outline: as §1

[4] = compound: C/C(=N\NC(=S)N1CCC1)/C2=CC=CC=N2 + C[C@]1(O)C[C@@H](c2nc(-c3ccc4ccc(-c5ccccc5)nc4c3)c3c(N)nccn32)C1 [Linsitinib] (partner 1 µM)
Outline: as §1

Cell Line | relative viability ([1]; first compound 0.05 µM) | relative viability ([1]; first compound 0.1581 µM) | relative viability ([1]; first compound 0.5 µM) | relative viability ([1]; first compound 1.581 µM) | relative viability ([1]; first compound 5 µM) | relative viability ([2]; first compound 0.05 µM) | relative viability ([2]; first compound 0.1581 µM) | relative viability ([2]; first compound 0.5 µM) | relative viability ([2]; first compound 1.581 µM) | relative viability ([2]; first compound 5 µM) | relative viability ([3]; first compound 0.05 µM) | relative viability ([3]; first compound 0.1581 µM) | relative viability ([3]; first compound 0.5 µM) | relative viability ([3]; first compound 1.581 µM) | relative viability ([3]; first compound 5 µM) | relative viability ([4]; first compound 0.05 µM) | relative viability ([4]; first compound 0.1581 µM) | relative viability ([4]; first compound 0.5 µM) | relative viability ([4]; first compound 1.581 µM) | relative viability ([4]; first compound 5 µM)
NCI-H1755 | 0.321 | 0.928 | 0.142 | 0.18 | 0.186 | 0.294 | 0.226 | 0.223 | 0.233 | 0.225 | 0.394 | 0.302 | 0.273 | 0.31 | 0.292 | 0.528 | 0.959 | 0.194 | 0.22 | 0.215
NCI-H1793 | 0.225 | 0.208 | 0.19 | 0.149 | 0.225 | 0.189 | 0.139 | 0.127 | 0.124 | 0.133 | 0.158 | 0.162 | 0.151 | 0.112 | 0.136 | 0.22 | 0.233 | 0.132 | 0.142 | 0.167
NCI-H1915 | 0.522 | 0.742 | 0.169 | 0.15 | 0.137 | 0.108 | 0.0989 | 0.117 | 0.11 | 0.118 | 0.128 | 0.142 | 0.163 | 0.133 | 0.126 | 0.523 | 1.03 | 0.228 | 0.176 | 0.153
NCI-H1944 | 0.684 | 0.988 | 0.392 | 0.189 | 0.18 | 0.17 | 0.154 | 0.137 | 0.126 | 0.135 | 0.212 | 0.15 | 0.133 | 0.112 | 0.124 | 0.875 | 1.06 | 0.6 | 0.259 | 0.196
NCI-H1975 | 0.169 | 0.143 | 0.152 | 0.163 | 0.168 | 0.173 | 0.167 | 0.136 | 0.154 | 0.167 | 0.133 | 0.144 | 0.141 | 0.155 | 0.145 | 0.157 | 0.151 | 0.145 | 0.158 | 0.163
NCI-H1993 | 0.664 | 0.662 | 0.638 | 0.511 | 0.533 | 0.337 | 0.539 | 0.319 | 0.338 | 0.446 | 0.382 | 0.487 | 0.436 | 0.405 | 0.375 | 0.643 | 0.703 | 0.58 | 0.614 | 0.53
NCI-H2009 | 0.1 | 0.136 | 0.0927 | 0.158 | 0.131 | 0.0755 | 0.107 | 0.129 | 0.103 | 0.0974 | 0.0997 | 0.122 | 0.134 | 0.15 | 0.122 | 0.139 | 0.163 | 0.154 | 0.165 | 0.138
NCI-H2023 | 0.0701 | 0.096 | 0.0791 | 0.0888 | 0.0996 | 0.082 | 0.0635 | 0.0543 | 0.0492 | 0.043 | 0.0924 | 0.0863 | 0.0863 | 0.0559 | 0.0883 | 0.1 | 0.0863 | 0.0724 | 0.0807 | 0.0886
NCI-H2085 | 0.246 | 0.248 | 0.245 | 0.248 | 0.281 | 0.339 | 0.379 | 0.355 | 0.288 | 0.305 | 0.248 | 0.264 | 0.237 | 0.178 | 0.244 | 0.222 | 0.307 | 0.242 | 0.223 | 0.215
NCI-H2087 | 0.248 | 0.212 | 0.185 | 0.146 | 0.18 | 0.145 | 0.0717 | 0.14 | 0.0948 | 0.098 | 0.16 | 0.181 | 0.214 | 0.163 | 0.119 | 0.305 | 0.37 | 0.301 | 0.244 | 0.178
NCI-H2126 | 0.328 | 0.828 | 0.265 | 0.281 | 0.27 | 0.184 | 0.211 | 0.197 | 0.186 | 0.168 | 0.235 | 0.221 | 0.212 | 0.219 | 0.208 | 0.277 | 0.724 | 0.268 | 0.223 | 0.246
NCI-H2228 | 0.181 | 0.132 | 0.13 | 0.117 | 0.123 | 0.231 | 0.15 | 0.166 | 0.156 | 0.145 | 0.107 | 0.147 | 0.116 | 0.0863 | 0.121 | 0.179 | 0.273 | 0.233 | 0.144 | 0.213
NCI-H2347 | 0.214 | 0.263 | 0.195 | 0.16 | 0.193 | 0.315 | 0.305 | 0.227 | 0.276 | 0.243 | 0.33 | 0.308 | 0.3 | 0.27 | 0.291 | 0.295 | 0.372 | 0.325 | 0.255 | 0.314
NCI-H2405 | 0.0935 | 0.0799 | 0.114 | 0.256 | 0.246 | 0.241 | 0.267 | 0.252 | 0.217 | 0.222 | 0.243 | 0.238 | 0.251 | 0.215 | 0.215 | 0.193 | 0.207 | 0.31 | 0.225 | 0.223
NCI-H3122 | 0.132 | 0.137 | 0.156 | 0.247 | 0.216 | 0.111 | 0.077 | 0.106 | 0.121 | 0.103 | 0.0953 | 0.11 | 0.11 | 0.149 | 0.15 | 0.145 | 0.143 | 0.169 | 0.246 | 0.221
PC-3 [JPC-3] | 0.42 | 0.855 | 0.281 | 0.253 | 0.285 | 0.338 | 0.436 | 0.357 | 0.269 | 0.196 | 0.394 | 0.464 | 0.308 | 0.265 | 0.237 | 0.647 | 0.973 | 0.469 | 0.313 | 0.311
